Consider two molecules from US11938129B2, “Methods and compositions for the treatment of vascular disease” (THE GENERAL HOSPITAL CORPORATION, priority 2018, dated 2024).

The test system of data set [1] is aortic aneurysm in Fbn1C1039G/+ mice. Briefly: experimental aortic aneurysm in Fbn1C1039G/+ mice: echocardiographic aortic dimensions. It is filed as in vivo, mouse. The following applies: Fbn1C1039G/+ mice treated from two to six months of life, drinking water. The source says:
Dimensions from each animal represent averages of measurements made on still frames in systole of the maximal internal diameter of the aortic valve annulus, aortic sinuses, sinotubular junction, or ascending aorta by a cardiologist blinded to genotype. The aorta was imaged using a standard parasternal long axis view. Based on historic controls, the mean diameter of the wild type aortic root at 4 months of life is 1.73+/-0.2 mm while in our disease model (Fbn1ci°[…]/+) the mean diameter is 2.15+/-0.3 mm. […] Nair hair removal cream was used on all mice the day prior to echocardiograms. All echocardiograms were performed on awake, unsedated mice using the Visualsonics Vevo imaging system and a 30 MHz transducer. All CT images were acquired using an Inveon small animal micro CT (Siemens Medical Solutions Inc., Malven, Pa.). All mice received intravenous iodinated contrast (Isovue-370, Bracco Diagnostic Inc.) at 20 pL/min during the scan. […] Images were visualized and analyzed in OsiriX software. Cohorts of 8-week-old wild-type or Fbn1cw3gGi+ mice were treated with oral administration in drinking water of either Losartan or GSK343 for 20 weeks (FIG. 5). […] Then 200 mL of drinking water was supplemented with 250 pL of GSK343 stock solution. […] Aortic dimensions were monitored monthly by echocardiograms as mentioned above.

The next data set relates to VSMC phenotypic markers. Briefly: expression of VSMC phenotypic markers in aortas of treated Fbn1C1039G/+ mice. It is filed as in vivo, mouse. The following applies: aortas of Fbn1C1039G/+ mice treated from two to six months. The procedure: Total RNA was prepared from tissue or primary cells using RNeasy kit (Qiagen) following the manufacturer's protocol. The cDNA was prepared by reverse transcription, and expression of SMC contractile genes were analyzed by qRT-PCR on SYBR green system (Applied Biosystem, Foster city, CA). 50 pL of plasma from wild-type or Fbn1cl° 39G1+ mice were used to prepare total RNA as mentioned above. Expression results were analyzed by the ddCT method and GAPDH (encoding glyceraldehyde-3-phosphate dehydrogenase) was used as a housekeeping gene. Fold change were calculated by taking the average over all the control samples as the baseline. […] The supernatant was removed and the vesicular fraction was resuspended with 750 pL of TRizol reagent followed by RNA extraction using the RNeasy kit (Qiagen) according to the manufacturer's protocol. Cohorts of 8-week-old wild-type or Fbn1cw3gGi+ mice were treated with oral administration in drinking water of either Losartan or GSK343 for 20 weeks (FIG. 5). […] Then 200 mL of drinking water was supplemented with 250 pL of GSK343 stock solution. Control group for either drug treatment was given with equal volumes of sterile water. Bottles containing either losartan or GSKS343 were replaced with fresh water supplied with drugs every 3 days. For experiments described in FIG. 5A-5C, 16-week-old wild-type or Fbnicw3gGi+ mice were treated for 8 weeks and as described above. Additionally, a group of mice were given a combination of both losartan and GSK343 at the same concentrations as of other single drug treatments. Aortic dimensions were monitored monthly by echocardiograms as mentioned above.

The subject of data set [2] is aortic wall of Fbn1C1039G/+ mice. The experiment in a line: histologic analysis of aortas of treated Fbn1C1039G/+ mice. It counts as in vivo, mouse. The following applies: aortas of Fbn1C1039G/+ mice treated from two to six months. The procedure: (§1) Latex was injected into the left ventricular apex under low pressure until it was visible in the femoral artery. Animals were then fixed in Formalin (10%) for 24 hours before transfer to 70% ethanol for dissection and storage. Aortas were then removed from the animals or dissected in situ for photography prior to paraffinization and sectioning (10 pM). Slides were produced for tissue staining or stained with standard stains including H&E staining, collagen deposition (Trichrome Stain (Masson) Kit, Sigma, USA), elastin (Verhoeff-Van Gieson, Thermo Scientific, MI, USA) or F-actin (ActinGreen™ 488 ReadyProbes, ThermoFisher Scientific, USA) for quantitative analysis. Elastin integrity score was rated by blinded observers and graded on an arbitrary scale of 5 (indicating high quality elastic fiber) to 1 (indicating severe elastin fragmentation). For nuclear staining aortas from human and mice were cryosectioned using OCT standard protocol as described previously (Fischer et al., 2008). Cohorts of 8-week-old wild-type or Fbn1cw3gGi+ mice were treated with oral administration in drinking water of either Losartan or GSK343 for 20 weeks (FIG. 5). […] Then 200 mL of drinking water was supplemented with 250 pL of GSK343 stock solution. Control group for either drug treatment was given with equal volumes of sterile water. Bottles containing either losartan or GSKS343 were replaced with fresh water supplied with drugs every 3 days. For experiments described in FIG. 5A-5C, 16-week-old wild-type or Fbnicw3gGi+ mice were treated for 8 weeks and as described above. Additionally, a group of mice were given a combination of both losartan and GSK343 at the same concentrations as of other single drug treatments. Aortic dimensions were monitored monthly by echocardiograms as mentioned above.

The next data set concerns H3K27me3. Briefly: H3K27me3 staining in aortas of treated Fbn1C1039G/+ mice. It is filed as in vivo, mouse. The following applies: compared to control or losartan treated mice. The procedure: as §1, with “Control group for either drug treatment was given with equal volumes of sterile water. Bottles containing either losartan or GSKS343 were replaced with fresh water supplied with drugs every 3 days. For experiments described in FIG. 5A-5C, 16-week-old wild-type or Fbnicw3gGi+ mice were treated for 8 weeks and as described above. Additionally, a group of mice were given a combination of both losartan and GSK343 at the same concentrations as of other single drug treatments.” left out

Another data set concerns TGF-β signaling. Briefly: TGF-β activity by phosphorylation of Smad2 or Erk1 in aortas of treated mice. It counts as in vivo, mouse. The following applies: aortic tissue of treated Fbn1C1039G/+ mice. The procedure:
as §1, with “Control group for either drug treatment was given with equal volumes of sterile water. Bottles containing either losartan or GSKS343 were replaced with fresh water supplied with drugs every 3 days. For experiments described in FIG. 5A-5C, 16-week-old wild-type or Fbnicw3gGi+ mice were treated for 8 weeks and as described above. Additionally, a group of mice were given a combination of both losartan and GSK343 at the same concentrations as of other single drug treatments.” left out

Another data set has as its system SM22a. Briefly: immunostaining of SM22a protein in aortas of treated Fbn1C1039G/+ mice. The following applies: compared to control Fbn1C1039G/+ mice. It counts as in vivo, mouse. The procedure: as §1, with “Control group for either drug treatment was given with equal volumes of sterile water. Bottles containing either losartan or GSKS343 were replaced with fresh water supplied with drugs every 3 days. For experiments described in FIG. 5A-5C, 16-week-old wild-type or Fbnicw3gGi+ mice were treated for 8 weeks and as described above. Additionally, a group of mice were given a combination of both losartan and GSK343 at the same concentrations as of other single drug treatments.” left out

In data set [3] the test system is neointimal formation in ligated carotid. Briefly: murine carotid artery ligation model: neointimal formation and stenosis (histology). It counts as in vivo, mouse. The following applies: wild-type mice, left carotid ligation, 21 days; GSK343 in drinking water from 24 hrs before ligation for 3 weeks; GapmeR 15 nmol 24 hrs before and 7 days post-ligation. The procedure:
(§2) All mice used in this study were cared for under strict compliance with the Partners Institutional Animal Care and Use Committee (IACUC), regulated by the United States Public Health Service (USPHS). Carotid ligations were performed in 10 week old mice. Briefly, animals were anesthetized using intraperitoneal ketamine/xylazine (80 and 12 mg/kg, respectively) followed by a small incision in the neck to expose the carotid artery. Then the left carotid was ligated at the carotid bifurcation level using a 8-0 silk suture. At 21 days mice were sacrificed and carotids were collected for histological analysis. Approximately 98% of wild type mice developed stenotic lesions. Mice that developed thrombosis of the ligated carotid were excluded from the study (−1¬2%). Malatl knockout mice were kindly provided by Dr. David Spector (Cold Spring Harbor, N.Y.). Hdac9 flox/flox/Talgn-cre mice were generated as previously reported (10). […]
(§3) Left and right carotids were cryosectioned using OCT standard protocol and sectioning. […] Slides 1, 5, 10, and 15 were H&E stained for quantification of neointima. For quantification of the neointima, internal and external elastic lamina perimeters and medial thickness from 4 quadrants were measured and averaged using Image J software from the National Institutes of Health (NIH). […]

A further data set relates to a-SMA and SM22a. Briefly: immunofluorescence of contractile proteins in ligated carotids. The following applies: ligated carotids of treated mice. It is filed as in vivo, mouse. The procedure:
All mice used in this study were cared for under strict compliance with the Partners Institutional Animal Care and Use Committee (IACUC), regulated by the United States Public Health Service (USPHS). Carotid ligations were performed in 10 week old mice. Briefly, animals were anesthetized using intraperitoneal ketamine/xylazine (80 and 12 mg/kg, respectively) followed by a small incision in the neck to expose the carotid artery. Then the left carotid was ligated at the carotid bifurcation level using a 8-0 silk suture. At 21 days mice were sacrificed and carotids were collected for histological analysis. Approximately 98% of wild type mice developed stenotic lesions. Mice that developed thrombosis of the ligated carotid were excluded from the study (−1¬2%). Malatl knockout mice were kindly provided by Dr. David Spector (Cold Spring Harbor, N.Y.). Hdac9 flox/flox/Talgn-cre mice were generated as previously reported (10). Ezh2 fl/fl/ (STOCK Ezh2tm2Sho/J) and Myh11-cre-GFP (B6.Cg-Tg(Myh11-cre,-EGFP)2Mik/J) were crossed to generate smooth muscle cell-Ezh2 deficient mice. All above mice and wild-type mice (C57BL/6J) were purchased from Jackson laboratory. For tissue analysis, animals were euthanized through inhalational isoflurane (Sigma, St, Louis, Mo.) prior to tissue collection. All carotid ligation (left carotid) procedures were performed at 10 weeks of age. All experiments were performed on male and female animals at a 1:1 ratio.
Left and right carotids were cryosectioned using OCT standard protocol and sectioning. The right carotid artery was unligated and served as an internal control. Neoinitima analysis was performed from hematoxylin and eosin (H & E) stained horizontal cross-sections embedded in Optimal Cutting Temperature compound (OCT). Briefly, the distal 0.2 mm of carotid from the ligation suture site were discarded followed by generation of 20 slides (10 pM). Slides 1, 5, 10, and 15 were H&E stained for quantification of neointima. For quantification of the neointima, internal and external elastic lamina perimeters and medial thickness from 4 quadrants were measured and averaged using Image J software from the National Institutes of Health (NIH). Slides 2-4, 6-9, and 11-14 were used for immunofluorescence staining.
Cohorts of 10-week-old wild-type mice were treated with oral administration in drinking water of GSK343 24 hrs before left carotid ligation and following treatment for 3 weeks. GSK343 inhibitor (25 mg) was dissolved in 1 mL of DMSO to obtain a stock solution of 46 mM. Then, 250 ml of drinking water was supplemented with 250 pl of GSK343 stock solution. Control group for was given with equal volumes of sterile water. Bottles containing GSK343 were replaced with fresh water supplied with drug every 3 days. […]

The next data set relates to MMP2 and MMP9 activity. The experiment in a line: in vivo MMP activity (MMPSense 750 FAST) after carotid ligation. The arrangement: species or system mouse. The following applies: 24 h post injection, ligated mice. The procedure: Mice were tail vein injected with 600 uL of MMPSense 750 FAST, a near-infrared fluorescence sensor for MMP2 and MMP9 activity, (PerkinElmer, USA). Mice were sacrificed 24 h post injection and aortas were dissected and analyzed using a Kodak image station 4000MM Pro for macroscopic fluorescence reflectance molecular imaging.
Cohorts of 10-week-old wild-type mice were treated with oral administration in drinking water of GSK343 24 hrs before left carotid ligation and following treatment for 3 weeks. GSK343 inhibitor (25 mg) was dissolved in 1 mL of DMSO to obtain a stock solution of 46 mM. Then, 250 ml of drinking water was supplemented with 250 pl of GSK343 stock solution. Control group for was given with equal volumes of sterile water. Bottles containing GSK343 were replaced with fresh water supplied with drug every 3 days. For Malatl antisense LNA treatments, cohorts of 10-week-old wild-type mice were injected with 15 nmol in saline solution 24 hrs before left carotid ligation following by a second injection 7 days post-ligation.

In the next data set the test system is PDGFR. The experiment in a line: immunofluorescence of p-PDGFR in ligated carotid. It is filed as in vivo, mouse. The following applies: media and intima of carotid arteries. The procedure: as §2, §3
A further data set has as its system FAK. The experiment in a line: immunofluorescence of p-FAK in ligated carotid. The following applies: media and intima of carotid arteries. It counts as in vivo, mouse. The procedure: as §2, §3
The next data set relates to Hdac9. The experiment in a line: immunofluorescence of Hdac9 in ligated carotid. It counts as in vivo, mouse. The following applies: arterial media and intima of carotid arteries. The procedure:
as §2, §3

For another data set, the system named is Mmp9. Briefly: immunofluorescence of Mmp9 in ligated carotid. It is filed as in vivo, mouse. The following applies: arterial media and intima of carotid arteries. The procedure: as §2, §3

Entries after “also recorded” stand apart in the source; their conditions may differ.

For the molecule `CCCCc1nc(Cl)c(CO)n1Cc1ccc(-c2ccccc2-c2nnn[n-]2)cc1.[K+]` [Losartan], the aortic dimensions result in [1] is listed as “ability to improve aortic dimensions”. Besides, the “synthetic markers (Col1a1, Col3a1, Gja1, Mmp2)” value in the data set on VSMC phenotypic markers is on record as “better ability to decrease”. Further, in [2], the “aortic architecture and filamentous actin content” value is “improvement”; the elastin integrity result is on record as “improve elastin integrity overall”. Moreover, in the data set on H3K27me3, the “H3K27me3 staining / aortic medial H3K27me3 modifications” value was “did not”. For the same molecule, the “TGF-β activity as assessed by phosphorylation of Smad2 or Erk1 protein” value with TGF-β signaling is recorded as “reduced”. In addition, in the data set with SM22a, the “SM22a protein expression (immunostaining of aortas)” value is “recovery of SM22a protein expression”.

On to “GapmeR-Malatl: GapmeR antisense oligonucleotide against MALAT1, GTCACAATGCATTCTA (SEQ ID NO: 1) (LNA gapmer, pattern not given here)”, for which the “extent of the stenotic response / neointimal formation” value in [3] is “significant inhibition of neointimal formation; also recorded: dramatically improved the extent of the stenotic response”. Besides, the “expression of contractile proteins such as a-SMA and SM22a” value in the data set on a-SMA and SM22a is listed as “improved the expression of contractile proteins”. Further, the “activity of MMPs” value in the data set with MMP2 and MMP9 activity is reported as “Inhibition of Mmp activity; also recorded: inhibited the activity of MMPs”. For the same molecule, the “phosphorylation of PDGFR” value in the data set with PDGFR is recorded as “dramatic reduction”. The “phosphorylation of FAK” value in the data set on FAK is “dramatic reduction”. Moreover, in the data set with Hdac9, the “accumulation of Hdac9” value is reported as “decreased accumulation”. The “accumulation of Mmp9” value in the data set with Mmp9 is on record as “decreased accumulation”.
